{"source": "patent US4339378A", "about": "“N-Acylcarnosine aluminum salts” (Nippon Chemiphar Co., Ltd., priority 1979, dated 1982)", "format_in_all_cases": "in vivo, male Donryu strain rats", "key": {"Shay's ulcer in rats": {"system": "Shay's ulcer in rats", "assay": "Shay's ulcer (pylorus ligation) in rats", "conditions": "for Ulcer index: total ulcerated area in forestomach", "procedure": "Shay's ulcer: Groups of ten male Donryu strain rats each weighing 210 to 230 g were deprived of food for 48 hours. The pylorus of each rat was ligated according to the method of Shay et al [Gastroenterology, 5, 43-61 (1945)]. Each of the animals was allowed to stand abstained from food and water for further 14 hours and then sacrificed to remove its stomach. After collection of the gastric juice, the ulcerated area (mm^2) in the forestomach of each rat was measured under a dissecting microscope (10×). The total area (mm^2) of all the lesions of each rat was indicated as an ulcer index. Test medicine samples were given orally immediately after the pylorus ligation."}, "Stress ulcer in rats": {"system": "Stress ulcer in rats", "assay": "Stress ulcer (restraint and water immersion) in rats", "conditions": "for Ulcer index: total lesion length in glandular portion, control 15.2 ± 3.2", "procedure": "Stress ulcer: Groups of ten male Donryu strain rats each weighing 240 to 260 g were placed in a stress cage which served to immobilize the animals therein and then immersed in a water bath of 23° C. on a level with the xiphoid process according to the method of K. Takagi et al [Jap. J. Pharmac., 18 (9), 9-19 (1968)], thereby imposing stress on each rat. Seven hours after the immersion, each of the animals was withdrawn from the water bath and immediately sacrificed by a blow on the head, followed by removal of the stomach of each rat. The stomach was slightly inflated by injecting a 1% formalin solution and then immediately immersed in a 1% formalin solution, followed by incising the stomach along its greater curvature to measure the length (mm) of each lesion in the glandular portion under a dissecting microscope (10×). The total length (mm) of all the lesions of each rat was indicated as an ulcer index. Test medicine samples were given orally ten minutes before the immersion in water."}, "[1]": {"system": "Indomethacin-induced ulcer in rats", "assay": "Indomethacin-induced ulcer in rats", "conditions": "300 mg/kg P.O., indomethacin 25 mg/kg s.c.; for Ulcer index: total lesion length, control 16.3 ± 2.4", "procedure": "Indomethacin-induced ulcer: Groups of ten male Donryu strain rats each weighing 200 to 215 g were deprived of food for 24 hours. Then, the pylorus was ligated under ether anethesia, after which indomethacin was administered subcutaneously in an amount of 25 mg/kg to each rat. Seven hours after the administration, each of the animals was sacrificed under ether anethesia to remove its stomach, followed by immersion in a 1% formalin solution for ten minutes. The stomach which had been semi-fixed was incised along its greater curvature, and the length (mm) of each lesion formed in the mucous membrane was measured under a dissecting microscope (10×). The total length (mm) of all the lesions of each rat was indicated as an ulcer index. Test medicine samples were given orally ten minutes before the pylorus logation."}, "[2]": {"system": "Histamine-induced ulcer in rats", "assay": "Histamine-induced ulcer in rats", "conditions": "300 mg/kg P.O., histamine phosphate 300 mg/kg i.p.; for Ulcer index: total lesion length, control 24.1 ± 4.7", "procedure": "Histamine-induced ulcer: Groups of ten male Donryu strain rats each weighing 210 to 230 g were deprived of food for 48 hours and then administered intraperitoneally with histamine phosphate (300 mg/kg). Four hours after the administration, each of the animals was sacrificed under ether anesthesia, followed by removal of its stomach and immersion in a 1% formalin solution for ten minutes. The stomach which had been semi-fixed was incised along the greater curvature, and the length (mm) of each lesion was measured under a dissecting microscope (10×). The total length (mm) of all the lesions of each rat was indicated as an ulcer index. Test medicine samples were given orally before the histamine administration."}, "[3]": {"system": "Aspirin-induced ulcer in rats", "assay": "Aspirin-induced ulcer in rats", "conditions": "1,000 mg/kg P.O., aspirin 100 mg/kg; for Ulcer index: total lesion length, control 17.7 ± 2.3", "procedure": "Aspirin-induced ulcer: Groups of ten male Donryu strain rats each weighing 220 to 230 g were deprived of food for 24 hours. The pylorus of each rat was ligated under ether anethesia according to the method of S. Okabe et al [Jap. J. Pharmac. 24, 357-361 (1974)]. After the pylorus ligation, aspirin (100 mg/kg) was administered orally to each rat. Seven hours after the administration, each of the animals was sacrificed under ether anesthesia to remove its stomach. After collection of the gastric juice and treatment with a 1% formalin solution, the length (mm) of each lesion formed in the glandular portion was measured. The total length (mm) of all the lesions of each rat was indicated as an ulcer index. Test medicine samples were given orally immediately after the pylorus ligation."}, "[4]": {"conditions": "1,000 mg/kg P.O., first series (control 2.4 ± 0.7)"}, "[5]": {"conditions": "2,000 mg/kg P.O., second series (control 2.9 ± 0.4)"}, "[6]": {"conditions": "1,000 mg/kg P.O., second series (control 2.9 ± 0.4)"}}, "data": [{"molecule": "NCCC(=O)N[C@@H](Cc1cnc[nH]1)C(=O)O", "note": "[L-Carnosine, L-carnosine]", "values": [{"measurement": "% Inhibition", "setting": "Shay's ulcer in rats; [4]", "value": 12.5, "unit": "%"}, {"measurement": "Ulcer index", "setting": "Shay's ulcer in rats; [4]", "value": "2.1 ± 0.7", "unit": "mm^2"}, {"measurement": "% Inhibition", "setting": "Stress ulcer in rats; 300 mg/kg P.O.", "value": 6.6, "unit": "%"}, {"measurement": "Ulcer index", "setting": "Stress ulcer in rats; 300 mg/kg P.O.", "value": "14.2 ± 3.7", "unit": "mm"}, {"measurement": "% Inhibition", "setting": "Stress ulcer in rats; 1,000 mg/kg P.O.", "value": 29.6, "unit": "%"}, {"measurement": "Ulcer index", "setting": "Stress ulcer in rats; 1,000 mg/kg P.O.", "value": "10.7 ± 2.2", "unit": "mm"}, {"measurement": "% Inhibition", "setting": "[1]", "value": "~ 0%"}, {"measurement": "Ulcer index", "setting": "[1]", "value": "17.3 ± 3.0", "unit": "mm"}, {"measurement": "% Inhibition", "setting": "[2]", "value": 28.2, "unit": "%"}, {"measurement": "Ulcer index", "setting": "[2]", "value": "17.3 ± 3.2", "unit": "mm"}]}, {"molecule": "NC(=O)CC[C@H](N)C(=O)O", "note": "[L-Glutamine, L-glutamine]", "values": [{"measurement": "% Inhibition", "setting": "Shay's ulcer in rats; [4]", "value": 8.3, "unit": "%"}, {"measurement": "Ulcer index", "setting": "Shay's ulcer in rats; [4]", "value": "2.2 ± 0.8", "unit": "mm^2"}, {"measurement": "% Inhibition", "setting": "[3]", "value": 66.1, "unit": "%"}, {"measurement": "Ulcer index", "setting": "[3]", "value": "6.0 ± 2.2", "unit": "mm"}, {"measurement": "% Inhibition", "setting": "[1]", "value": 41.8, "unit": "%"}, {"measurement": "Ulcer index", "setting": "[1]", "value": "9.5 ± 4.1", "unit": "mm"}]}, {"molecule": "CC(=O)N[C@@H](CCC(N)=O)C(=O)O.[Al]", "note": "[N-Acetyl-L-glutamine aluminum, N-acetyl-L-glutamine aluminum]", "values": [{"measurement": "% Inhibition", "setting": "Shay's ulcer in rats; [5]", "value": 69.0, "unit": "%"}, {"measurement": "Ulcer index", "setting": "Shay's ulcer in rats; [5]", "value": "0.9 ± 0.7", "unit": "mm^2"}]}, {"molecule": "N-acetyl-L-carnosine aluminum salt [B]", "values": [{"measurement": "% Inhibition", "setting": "Shay's ulcer in rats; [6]", "value": 79.3, "unit": "%"}, {"measurement": "Ulcer index", "setting": "Shay's ulcer in rats; [6]", "value": "0.6 ± 0.8", "unit": "mm^2"}]}, {"molecule": "N-acetylcarnosine aluminum salt", "values": [{"measurement": "% Inhibition", "setting": "Shay's ulcer in rats; [4]", "value": 80.4, "unit": "%"}, {"measurement": "Ulcer index", "setting": "Shay's ulcer in rats; [4]", "value": "0.47 ± 0.4", "unit": "mm^2"}, {"measurement": "% Inhibition", "setting": "Stress ulcer in rats; 300 mg/kg P.O.", "value": 46.7, "unit": "%"}, {"measurement": "Ulcer index", "setting": "Stress ulcer in rats; 300 mg/kg P.O.", "value": "8.1 ± 2.9", "unit": "mm"}, {"measurement": "% Inhibition", "setting": "Stress ulcer in rats; 1,000 mg/kg P.O.", "value": 70.4, "unit": "%"}, {"measurement": "Ulcer index", "setting": "Stress ulcer in rats; 1,000 mg/kg P.O.", "value": "4.5 ± 2.4", "unit": "mm"}, {"measurement": "% Inhibition", "setting": "[3]", "value": 96.0, "unit": "%"}, {"measurement": "Ulcer index", "setting": "[3]", "value": "0.7 ± 0.6", "unit": "mm"}, {"measurement": "% Inhibition", "setting": "[1]", "value": 63.2, "unit": "%"}, {"measurement": "Ulcer index", "setting": "[1]", "value": "6.0 ± 2.4", "unit": "mm"}, {"measurement": "% Inhibition", "setting": "[2]", "value": 61.0, "unit": "%"}, {"measurement": "Ulcer index", "setting": "[2]", "value": "9.4 ± 2.0", "unit": "mm"}]}, {"molecule": "aluminum sucrose sulfate", "values": [{"measurement": "% Inhibition", "setting": "Shay's ulcer in rats; [4]", "value": 71.0, "unit": "%"}, {"measurement": "% Inhibition", "setting": "Shay's ulcer in rats; [6]", "value": 72.4, "unit": "%"}, {"measurement": "Ulcer index", "setting": "Shay's ulcer in rats; [4]", "value": "0.7 ± 0.8", "unit": "mm^2"}, {"measurement": "Ulcer index", "setting": "Shay's ulcer in rats; [6]", "value": "0.8 ± 0.6", "unit": "mm^2"}, {"measurement": "% Inhibition", "setting": "Stress ulcer in rats; 1,000 mg/kg P.O.", "value": 56.7, "unit": "%"}, {"measurement": "Ulcer index", "setting": "Stress ulcer in rats; 1,000 mg/kg P.O.", "value": "6.5 ± 6.0", "unit": "mm"}, {"measurement": "% Inhibition", "setting": "[3]", "value": 79.1, "unit": "%"}, {"measurement": "Ulcer index", "setting": "[3]", "value": "3.7 ± 2.1", "unit": "mm"}, {"measurement": "% Inhibition", "setting": "[1]", "value": 52.1, "unit": "%"}, {"measurement": "Ulcer index", "setting": "[1]", "value": "7.8 ± 3.0", "unit": "mm"}, {"measurement": "% Inhibition", "setting": "[2]", "value": 40.2, "unit": "%"}, {"measurement": "Ulcer index", "setting": "[2]", "value": "14.4 ± 1.5", "unit": "mm"}]}]}
